Reference: patent publication US7534809B2, “Phospho-indoles as HIV inhibitors” (priority 2004, dated 2009)
pEC50, pIC50: −log10 of the molar value.

Experiments:
HIV BH-10 WT = test: Cell-based assay using BH-10 cells, wild type; settings: Human immunodeficiency virus 1, read-out: EC50 WT///B, BH-10 cells, wild type
HIV mutant strain Y181C = test: Cell-based assay using BH-10 cells, Y181C mutant; settings: Human immunodeficiency virus 1, read-out: EC50 Y181C, BH-10 cells, Y181C mutant
Procedure: (§1) In a typical embodiment, the NNRTIs display an EC50 in a mutant HIV strain of less than approximately 5, 2.5, 1 or 0.1 μM concentration. The degree of cross-resistance against a drug resistant strain of HIV is measured by assessing the EC50 of the desired oxo-pyrimidine compound in the target mutated, i.e., drug resistant, virus.
(§2) The degree of cross-resistance against a drug resistant strain of HIV can easily be measured by assessing the EC50 of the desired indole in the target mutated i.e., drug resistant, virus.

[1] = test system: HIV mutant strain K103N/Y181C; test: Cell-based assay using BH-10 cells, K103N/Y181C mutant; settings: Human immunodeficiency virus 1, read-out: EC50 K103N/Y181C, BH-10 cells, K103N/Y181C mutant
Procedure: as §1, §2

[2] = target: HIV reverse transcriptase WT (Human immunodeficiency virus type 1 group M subtype B, UniProt P03366); test: Enzyme assay, reverse transcriptase WT; format: biochemical, HIV-1
Description: (§3) As used herein, “reverse transcriptase” or “RT” refers to an enzyme having a non-nucleoside inhibitory binding site similar to that of HIV-1 RT, and to which ligands, which bind the composite binding pocket of the compounds of the present invention, also will bind. One measure of RT activity is viral replication. A measure of HIV-1 viral replication is the automated assay that utilizes MTT, as described earlier in this specification. Another measure is the p24 core antigen enzyme immunoassay, such as, for example, the assay commercially available from Coulter Corporation/Immunotech, Inc.® (Westbrook, Mich.). Another means for measuring RT activity is by assaying recombinant HIV-1 reverse transcriptase activity, such as, for example, by using the Quan-T-RT™ assay system commercially available from Amersham® (Arlington Heights, Ill.) and as described by Bosworth et al., Nature, 1989, 341:167-168.
(§4) The 3-phosphoindoles can be assessed for their ability to inhibit reverse transcriptase activity in vitro according to standard screening methods.

[3] = target: HIV reverse transcriptase Y181C (Human immunodeficiency virus type 1 group M subtype B, UniProt P03366, Y780C); test: Enzyme assay, reverse transcriptase Y181C; format: biochemical, HIV-1
Description: as §3, §4

[4] = target: HIV reverse transcriptase K103N (Human immunodeficiency virus type 1 group M subtype B, UniProt P03366, K702N); test: Enzyme assay, reverse transcriptase K103N; format: biochemical, HIV-1
Description: as §3, §4

[5] = target: HIV reverse transcriptase K103N/Y181C (Human immunodeficiency virus type 1 group M subtype B, UniProt P03366, K702N/Y780C); test: Enzyme assay, reverse transcriptase K103N/Y181C; format: biochemical, HIV-1
Description: as §3, §4

Row | SMILES | pEC50 (HIV BH-10 WT) | pEC50 (HIV mutant strain Y181C) | pEC50 [1] | pIC50 [2] | pIC50 [3] | pIC50 [4] | pIC50 [5]
1 | COP(=O)(c1cc(C)cc(C)c1)c1c(C(=O)NCc2cc[n+]([O-])cc2)[nH]c2ccc(Cl)c(F)c12 (stereo not shown) [Compound 22m] | 8.68 | 8.59 | 8.72 | – | – | – | –
2 | COP(=O)(c1cc(C)cc(C)c1)c1c(C(=O)NCc2cc[n+]([O-])cc2)[nH]c2ccc(Cl)cc12 (stereo not shown) [Compound 22n] | 8.70 | 8.06 | 8.35 | – | – | – | –
3 | COP(=O)(c1cc(C)cc(C)c1)c1c(C(=O)NCc2cccc[n+]2[O-])[nH]c2ccc(Cl)cc12 (stereo not shown) [Compound 22p] | 8.72 | 7.29 | 7.75 | – | – | – | –
4 | COP(=S)(c1ccccc1)c1c(C(N)=O)[nH]c2ccc(Cl)cc12 (stereo not shown) [Compound 25b] | 9.40 | 7.38 | 7.05 | – | – | – | –
5 | NC(=O)c1[nH]c2ccc(Cl)cc2c1P(=O)(c1ccccc1)c1ccccc1 [Compound 27a] | < 5.90 | < 5.90 | < 5.90 | < 5.30 | < 5.30 | < 5.30 | < 5.30
6 | CP(=O)(c1ccccc1)c1c(C(N)=O)[nH]c2ccc(Cl)cc12 (stereo not shown) [Compound 29a] | 9.10 | 6.57 | 5.86 | 6.63 | 5.60 | < 5.30 | < 5.30
7 | CN(C)P(=O)(c1ccccc1)c1c(C(N)=O)[nH]c2ccc(Cl)cc12 (stereo not shown) [Compound 31a] | 7.86 | 6.33 | < 5.90 | 5.85 | < 5.30 | < 5.30 | < 5.30
8 | COP(=O)(c1cccc(/C=C/C#N)c1)c1c(C(N)=O)[nH]c2ccc(Cl)cc12 (stereo not shown) [Compound 33a] | 8.49 | 8.70 | 8.47 | – | – | – | –
9 | CCOP(=O)(c1cccs1)c1c(C(N)=O)[nH]c2ccc(Cl)cc12 (stereo not shown) [Compound 51] | 8.66 | 7.28 | 7.18 | – | – | – | –
10 | COP(=O)(c1ccsc1)c1c(C(N)=O)[nH]c2ccc(Cl)cc12 (stereo not shown) [Compound 52a] | 9.30 | 8.82 | 8.20 | – | – | – | –
11 | COP(=O)(c1cccs1)c1c(C(N)=O)[nH]c2ccc(Cl)cc12 (stereo not shown) [Compound 52b] | 9.30 | 8.06 | 8.60 | – | – | – | –
12 | COP(=O)(CC=C(C)C)c1c(C(N)=O)[nH]c2ccc(Cl)cc12 (stereo not shown) [Compound 57b] | 9.10 | 7.88 | 6.76 | – | – | – | –
13 | COP(=O)(c1cc(F)cc(F)c1)c1c(C(=O)NCC#N)[nH]c2ccc(Cl)cc12 (stereo not shown) [Compound 59a] | 8.85 | 7.33 | 8.08 | – | – | – | –
14 | COP(=O)(c1cc(F)cc(F)c1)c1c(C(=O)NCCC#N)[nH]c2ccc(Cl)cc12 (stereo not shown) [Compound 59b] | 8.46 | 7.16 | 7.67 | – | – | – | –
15 | NC(=O)c1[nH]c2ccc(Cl)cc2c1P(=O)(O)c1ccccc1 [Compound 60a] | < 5.90 | < 5.90 | < 5.90 | < 5.30 | < 5.30 | < 5.30 | < 5.30
